Experimental data reported in patent US20210395242A1, “HETEROCYCLIC COMPOUNDS AS AHR MODULATORS” (JAGUAHR THERAPEUTICS PTE LTD, priority 2018, published 2021).

Assays:
[1] = biological target: T1, CYP1A1 (Homo sapiens, UniProt P04798); test: CYP1A1 inhibition assay (Promega P450-Glo, Cypex CYP1A1 bactosomes); assay type: biochemical; conditions: Luciferin-CEE 30 μM, 0.2 mM NADPH, 37° C. 10 minutes, arithmetic mean of pIC50
T1 construct: purchased Cypex
T1 sequence (P04798 1-512): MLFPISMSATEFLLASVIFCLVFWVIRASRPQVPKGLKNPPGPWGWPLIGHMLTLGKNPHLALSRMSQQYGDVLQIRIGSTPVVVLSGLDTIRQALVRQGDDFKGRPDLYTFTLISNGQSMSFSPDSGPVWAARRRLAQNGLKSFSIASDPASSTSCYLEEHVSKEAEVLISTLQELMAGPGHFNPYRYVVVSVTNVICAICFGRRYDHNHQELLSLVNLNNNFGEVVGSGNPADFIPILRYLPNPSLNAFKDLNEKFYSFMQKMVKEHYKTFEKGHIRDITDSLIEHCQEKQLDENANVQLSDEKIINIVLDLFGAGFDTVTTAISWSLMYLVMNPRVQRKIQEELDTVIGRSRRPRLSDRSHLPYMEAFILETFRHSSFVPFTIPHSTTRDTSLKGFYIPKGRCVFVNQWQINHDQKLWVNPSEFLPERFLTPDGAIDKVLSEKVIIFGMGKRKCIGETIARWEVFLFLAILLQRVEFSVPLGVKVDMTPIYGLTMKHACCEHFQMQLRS
Protocol: (§1) The compounds of the examples were tested in selected biological assays two or more times. Data are reported as the arithmetic mean of the pIC50 (−log10IC50) values, where IC50 is defined as the concentration of compound producing a 50% inhibition of the agonist (KYNA) response.
In vitro assay 2: CYP1A1 inhibition assay The direct CYP1A1 inhibitory activity of test compounds was also assessed using the Promega P450-Glo™ assay system. Seven concentrations of test compound were added to a ½ area white 96 well plate. Cypex CYP1A1 bactosomes ([final] 0.5 pmol) and CYP1A1 substrate Luciferin-CEE ([final] 30 μM) were prepared in 0.1M potassium phosphate buffer and incubated with test compounds at 37° C. for 5 minutes. 0.2 mM NADPH was then added to the plates and incubated at 37° C., for 10 minutes. The reaction was stopped by adding luciferin detection reagent and luminescence was read after 20 minutes.

[2] = biological target: T2, AhR (Homo sapiens, UniProt P35869); test: AhR antagonism in U937 cells (Promega P450-Glo assay); assay type: cell-based; conditions: inhibition of 300 μM KYNA response, 24 hrs, CYP1A1 activity readout (Luciferin-CEE), arithmetic mean of pIC50
T2 construct: endogenous in cells; host or cells: U937 cells
T2 sequence (P35869 11-848): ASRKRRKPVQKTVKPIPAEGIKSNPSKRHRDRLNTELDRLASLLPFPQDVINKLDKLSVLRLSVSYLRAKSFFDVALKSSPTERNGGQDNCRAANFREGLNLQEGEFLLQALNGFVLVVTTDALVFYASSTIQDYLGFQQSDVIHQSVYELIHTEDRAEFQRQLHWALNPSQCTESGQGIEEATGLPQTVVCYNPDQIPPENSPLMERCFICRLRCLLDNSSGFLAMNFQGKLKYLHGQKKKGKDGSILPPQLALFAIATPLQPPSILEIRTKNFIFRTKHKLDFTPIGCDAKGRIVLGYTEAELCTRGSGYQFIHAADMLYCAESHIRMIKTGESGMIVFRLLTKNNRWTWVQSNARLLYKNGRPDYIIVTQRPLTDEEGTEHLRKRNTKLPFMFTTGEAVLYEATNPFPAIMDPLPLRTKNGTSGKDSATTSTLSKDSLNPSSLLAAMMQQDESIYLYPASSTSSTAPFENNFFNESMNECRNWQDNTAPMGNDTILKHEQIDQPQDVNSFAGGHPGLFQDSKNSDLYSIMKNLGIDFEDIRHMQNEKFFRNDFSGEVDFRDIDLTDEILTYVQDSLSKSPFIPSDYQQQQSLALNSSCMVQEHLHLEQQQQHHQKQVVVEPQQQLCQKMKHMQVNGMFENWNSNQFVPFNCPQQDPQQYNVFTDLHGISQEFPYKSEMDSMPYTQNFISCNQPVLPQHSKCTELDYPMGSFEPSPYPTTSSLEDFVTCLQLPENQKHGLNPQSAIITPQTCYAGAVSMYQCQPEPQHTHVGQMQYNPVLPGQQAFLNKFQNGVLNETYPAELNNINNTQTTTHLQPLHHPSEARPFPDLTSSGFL
Protocol: as §1
In Vitro Assay 1: AhR Antagonism in U937 Cells (Promega P450-Glo™ Assay)
AhR antagonism was assessed in U937 cells (myeloid lineage cell line derived from a human histiocytic lymphoma). Ligand binds the AhR in the cytoplasm, and the AhR-ligand complex translocates to the nucleus and forms a heterodimer with AhR nuclear translocator (Arnt). This complex binds the xenobiotic response element (XRE) in the 5′ upstream region of the CYP1A1 promoter, enhancing CYP1A1 expression. CYP1A1 activity is subsequently determined by assessing the conversion of Luciferin-CEE to luciferin, which in turn reacts with luciferase to produce light. The amount of light produced is directly proportional to cytochrome P450 activity. U937 cells in Ultraculture serum free media (Lonza) were plated at 100,000 cells per well in a round bottom 96 well tissue culture plate. Seven concentrations of test compound (final [DMSO]1%) were added and incubated for 10 minutes before the addition of 300 μM KYNA. The plates were then placed in an incubator at 37° C., >85% humidity, 5% CO2 for 24 hrs. After aspiration of the supernatant the CYP1A1 substrate Luciferin-CEE ([Final] 83 μM) was added and incubated for 3 hrs before the reaction was stopped by adding luciferin detection reagent and luminescence was read after 20 minutes.

Row | SMILES | IC50 [1] [nM] | IC50 [2] [nM]
1 | Cc1cc(NC(=O)c2ccon2)ccc1-c1nc2ccccc2o1 [Example 7, N-(4-(benzo[d]oxazol-2-yl)-3-methylphenyl)isoxazole-3-carboxamide] | 631 | 79.4
2 | CCNC(=O)c1cccc2nc(-c3ccc(NC(=O)c4ccnn4C)cc3)oc12 [Example 15, N-Ethyl-2-(4-(1-methyl-1H-pyrazole-5-carboxamido)phenyl) benzo[d]oxazole-7-carboxamide] | 1000 | 398
3 | Cc1cccc2oc(-c3ccc(NC(=O)c4ccnn4C)cc3)nc12 [Example 17, 1-methyl-N-(4-(4-methylbenzo[d]oxazol-2-yl)phenyl)-1H-pyrazole-5-carboxamide] | 1000 | 31.6
4 | Cn1nccc1C(=O)Nc1ccc(-c2nc3ccccc3s2)cc1 [Example 21, N-(4-(benzo[d]thiazol-2-yl)phenyl)-1-methyl-1H-pyrazole-5-carboxamide] | 316 | 50.1
5 | Cn1nccc1C(=O)Nc1ccc(-c2nc3cccc(Cl)c3o2)cc1 [Example 11, N-(4-(7-chlorobenzo[d]oxazol-2-yl)phenyl)-1-methyl-1H-pyrazole-5-carboxamide] | 794 | 12.6
6 | Cn1nccc1C(=O)Nc1ccc(-c2nc3cccc(CO)c3o2)cc1 [Example 13, N-(4-(7-(hydroxymethyl)benzo[d]oxazol-2-yl)phenyl)-1-methyl-1H-pyrazole-5-carboxamide] | 794 | 100
7 | COCCn1nccc1C(=O)Nc1ccc(-c2nc3ccccc3o2)cc1 [Example 2, N-(4-(benzo[d]oxazol-2-yl)phenyl)-1-(2-methoxyethyl)-1H-pyrazole-5-carboxamide] | 794 | 100
8 | Cc1cc(NC(=O)c2ccnn2C)ccc1-c1nc2c(C)cccc2o1 [Example 23, 1-methyl-N-(3-methyl-4-(4-methylbenzo[d]oxazol-2-yl)phenyl)-1H-pyrazole-5-carboxamide] | 1260 | 17.4
9 | COC(=O)c1cccc2nc(-c3ccc(NC(=O)c4ccnn4C)cc3)oc12 [Example 3, methyl 2-(4-(1-methyl-1H-pyrazole-5-carboxamido)phenyl) benzo[d]oxazole-7-carboxylate] | 1260 | –
10 | Cn1nccc1C(=O)Nc1ccc(-c2nc3cccc(C#N)c3o2)cc1 [Example 16, N-(4-(7-Cyanobenzo[d]oxazol-2-yl)phenyl)-1-methyl-1H-pyrazole-5-carboxamide] | 2510 | 15.8
11 | CNC(=O)c1cccc2nc(-c3ccc(NC(=O)c4ccnn4C)cc3)oc12 [Example 4, N-methyl-2-(4-(1-methyl-1H-pyrazole-5-carboxamido)phenyl) benzo[d]oxazole-7-carboxamide] | 1000 | 79.4
12 | COCCn1nccc1C(=O)Nc1ccc(-c2nc3cccc(C)c3o2)cc1 [Example 24, 1-(2-methoxyethyl)-N-(4-(7-methylbenzo[d]oxazol-2-yl)phenyl)-1H-pyrazole-5-carboxamide] | 631 | 63.1
13 | Cc1cccc2nc(-c3ccc(NC(=O)c4ccnn4C)cc3)oc12 [Example 6, 1-methyl-N-(4-(7-methylbenzo[d]oxazol-2-yl)phenyl)-1H-pyrazole-5-carboxamide] | 631 | 39.8
14 | Cn1nccc1C(=O)Nc1ccc(-c2nc3cccc(C(N)=O)c3o2)cc1 [Example 14, 2-(4-(1-methyl-1H-pyrazole-5-carboxamido)phenyl) benzo [d]oxazole-7-carboxamide] | 2510 | 200
15 | Cc1nc(-c2ccc(NC(=O)c3ccnn3C)cc2)oc1C [Example 5, N-(4-(4,5-dimethyloxazol-2-yl)phenyl)-1-methyl-1H-pyrazole-5-carboxamide] | 1000 | 15.8

More lines, in order of falling IC50 [1], values ahead:

Row | IC50 [1] [nM] | IC50 [2] [nM] | SMILES
16 | 316 | 145 | Cn1nccc1C(=O)Nc1ccc(-c2nc3cccc(Cl)c3[nH]2)cc1 [Example 19, N-(4-(7-chloro-1H-benzo[d]imidazol-2-yl)phenyl)-1-methyl-1H-pyrazole-5-carboxamide]
17 | 282 | 79.4 | Cc1cc(NC(=O)c2ccon2)ccc1-c1nc2cccc(C)c2o1 [Example 8, N-(3-methyl-4-(7-methylbenzo[d]oxazol-2-yl)phenyl) isoxazole-3-carboxamide]
18 | 251 | 363 | Cn1nccc1C(=O)Nc1ccc(-c2nc3cccc(C(C)(C)O)c3o2)cc1 [Example 18, N-(4-(7-(2-hydroxypropan-2-yl)benzo[d]oxazol-2-yl)phenyl)-1-methyl-1H-pyrazole-5-carboxamide]
19 | 251 | 63.1 | CCn1c(-c2ccc(NC(=O)c3ccnn3C)cc2)nc2ccccc21 [Example 1, N-(4-(1-ethyl-1H-benzo[d]imidazol-2-yl)phenyl)-1-methyl-1H-pyrazole-5-carboxamide]
20 | 251 | 50.1 | Cn1nccc1C(=O)Nc1ccc(-c2nc3cccc(C(=O)NCCc4c[nH]c5ccccc45)c3o2)cc1 [Example 12, N-(2-(1H-indol-3-yl)ethyl)-2-(4-(1-methyl-1H-pyrazole-5-carboxamido)phenyl)benzo[d]oxazole-7-carboxamide]
21 | 224 | 158 | Cn1nccc1C(=O)Nc1ccc(-c2nc3ccccc3[nH]2)cc1 [Example 20, N-(4-(1H-benzo[d]imidazol-2-yl)phenyl)-1-methyl-1H-pyrazole-5-carboxamide]
22 | 200 | 7.94 | Cc1cc(NC(=O)c2ccnn2C)ccc1-c1nc2ccccc2o1 [Example 22, N-(4-(benzo[d]oxazol-2-yl)-3-methylphenyl)-1-methyl-1H-pyrazole-5-carboxamide]
23 | 200 | 25.1 | Cn1nccc1C(=O)Nc1ccc(-c2nc3ccccc3o2)cc1 [Example 10, N-(4-(benzo[d]oxazol-2-yl)phenyl)-1-methyl-1H-pyrazole-5-carboxamide]
24 | 158 | 7.94 | Cc1cc(NC(=O)c2ccnn2C)ccc1-c1nc2cccc(C)c2o1 [Example 9, 1-methyl-N-(3-methyl-4-(7-methylbenzo[d]oxazol-2-yl)phenyl)-1H-pyrazole-5-carboxamide]
